Reference: paper PMC8443647, “Hybrid derivative of cathelicidin and human beta defensin-2 against Gram-positive bacteria: A novel approach for the treatment of bacterial keratitis” (Scientific Reports, 2021)
“And” between values parts separate entries of the source, which are not always exact repeats. Identical values can stand only once. Like-named read-outs stand apart in the source and are kept apart here. Bridge positions count the residues as written; N and C are the ends. Ends that are not written are not given here. Peptide text beside a SMILES is read from it.

Columns and labels:
[1] = system: human corneal epithelial cells (HCE-2); test: cells; format: cell-based; details: 3 h
Description: (§1) Cell viability and cytotoxicity of antibiotics and peptides were determined against human corneal epithelial cells (HCE-2, CRL-11135, ATCC, Manassas, Virginia, USA) using cell-counting-kit-8 (CCK-8) assay (Sigma Aldrich, Merck Life Science UK Limited, Dorset, UK) and lactate dehydrogenase (LDH) assay (ThermoFisher Scientific, UK), respectively, as per manufacturer’s guidelines. HCE-2 cells were cultured and seeded into a 96-well plate at a density of 7.5 × 10^3 cells/well and allowed to attach overnight and grew to 80–90% confluency in keratinocyte serum free medium (KSFM) supplemented with human recombinant epidermal growth factor, bovine pituitary extract, hydrocortisone, and insulin. Once the confluency reached 80–90%, the cells were incubated with treatment for 3 h before OD450 measurement was taken using BMG Clariostar microplate reader (BMG Labtech Ltd., Aylesbury, UK). Appropriate controls were used, including 0.1% Triton X-100 as positive control and KSFM as negative control. Cell viability was calculated using the following formula: [([…]) × 100; I = intensity] and cytotoxicity was calculated using the following formula: [((Itreatment – INC)/(IPC – INC)) × 100].

P. aeruginosa PAO1-L = test: microbe, parasite or virus in culture; format: cell-based
Excerpt: (§2) A range of Gram-positive and Gram-negative laboratory- and clinical-strain bacteria were used for the experiments. These included laboratory-strain methicillin-sensitive S. aureus (MSSA; including SH1000 and ATCC SA29213), laboratory-strain MRSA (ATCC MRSA43300), clinical-strain MRSA (MRSA-OS; an IK isolate), laboratory-strain methicillin-sensitive Staphylococcus epidermidis (MSSE; ATCC SE12228), laboratory invasive-strain P. aeruginosa (PAO1-L), and clinical cytotoxic-strain P. aeruginosa (PA-OS; an IK isolate).
(§3) In vitro antimicrobial efficacy of the antibiotics and designed HDPs was determined using an established MIC assay with broth microdilution method approved by the Clinical and Laboratory Standards Institute (CLSI)[64]. Briefly, the microorganisms were cultured on Tryptone Soya Agar (TSA) and incubated overnight for 18–21 h at 37 °C. Bacterial inoculums were subsequently prepared using the direct colony suspension method. Three to five bacterial colonies were obtained from the agar plate and inoculated into an Eppendorf tube containing 1 ml of cation-adjusted Muller-Hinton broth (caMHB), consisting of 20–25 mg/L calcium ions (Ca^2+) and 10–12.5 mg/L magnesium ions (Mg^2+). The bacterial suspension was adjusted to achieve a turbidity equivalent to 0.1 OD600 or 0.5 MacFarland, containing ~ 1.5 × 10^8 colony-forming unit (CFU)/ml, which was then further diluted in 1:150 in caMHB to reach a final bacterial concentration of ~ 1 × 10^6 colony forming units (CFU)/ml. Each treatment (peptide or antibiotic) was prepared in 1:2 serial dilution in 96-well polypropylene microplates (with a final treatment volume of 50 μl per well), followed by the addition of 50 μl of 1 × 10^6 CFU/ml bacteria into each well (with a final bacterial concentration of 5 × 10^5 CFU/ml).

MRSA-OS = test: microbe, parasite or virus in culture; format: cell-based, Staphylococcus aureus; details: 24 h
Excerpt: as §2, §3

S. aureus SH1000 = test: microbe, parasite or virus in culture; format: cell-based, Staphylococcus aureus
Excerpt: as §2, §3

in vitro = format: cell-based, human; details: human
Description: as §1

[2] = system: human corneal epithelial cells (HCE-2); test: in vitro; format: cell-based
Description: as §1

[3] = system: Gram-positive or Gram-negative bacteria; test: MIC assay, all tested organisms summarised; format: cell-based; details: summary over the organisms tested, without salt
Excerpt: as §2
In vitro antimicrobial efficacy of the antibiotics and designed HDPs was determined using an established MIC assay with broth microdilution method approved by the Clinical and Laboratory Standards Institute (CLSI)[64]. Briefly, the microorganisms were cultured on Tryptone Soya Agar (TSA) and incubated overnight for 18–21 h at 37 °C. Bacterial inoculums were subsequently prepared using the direct colony suspension method. Three to five bacterial colonies were obtained from the agar plate and inoculated into an Eppendorf tube containing 1 ml of cation-adjusted Muller-Hinton broth (caMHB), consisting of 20–25 mg/L calcium ions (Ca^2+) and 10–12.5 mg/L magnesium ions (Mg^2+). […]

S. aureus ATCC 29213 = test: Murine S. aureus keratitis model (in vivo efficacy); parameters: species or system Staphylococcus aureus; C57BL/6J mice; details: levofloxacin 0.5%
Description: Based on the in vivo safety data, the highest tolerable concentration of CaD23, 500 μg/ml (0.05%), was used in the subsequent S. aureus keratitis murine model. Levofloxacin 0.5%, a commonly used antibiotic for BK in clinical setting, and PBS were used as the positive and negative controls, respectively.
All mice were randomly allocated to each treatment group (n = 5 mice/group). Slit-lamp examination was performed before the start of experiment to confirm the health of corneas. […] 10 μl of ~ 1 × 10^8 CFU/ml of ATCC SA29213 was applied topically onto the cornea and the lid was held shut for 1 min. […] The eyes were monitored daily using slit-lamp biomicroscopy and photography. Ocular clinical scoring was adapted from a previous method described by Clemens et al.[52] with minor modifications: (a) 0: Clear cornea or minimal opacity, partially covering the pupil; (b) + 1: Mild opacity, partially/fully covering the pupil; (c) + 2: Dense opacity, partially covering the pupil; (d) + 3: Dense opacity fully covering the pupil; and (e) + 4: Corneal perforation or phthisis.
At the end of day 3, all animals were sacrificed, and the infected eyes were enucleated. The whole corneas were subsequently dissected and homogenized in 1 ml of sterile PBS using sterile glass micro-beads. The homogenised infected corneal tissue suspension was serially diluted in 1:10 and plated on TSA plates in triplicates for enumeration of CFU after 24 h incubation at 37 °C.

fresh human erythrocytes = test: Hemolytic assay; format: cell-based; details: 1 h
Description: (§4) Ethical approval was obtained from the Local Research Ethics Committee of University of Nottingham prior to the experiment (Ref: 176-1812). The experiment was conducted in accordance with the relevant guidelines and regulations. Hemolytic assay was performed according to the previously established protocol. Briefly, 5 ml of fresh human blood was collected from healthy participants with written informed consent, in an EDTA tube and centrifuged for 10 min at 1300g at 10 °C for separation of plasma. The remaining erythrocytes were rinsed and centrifuged further three times in Ca^2+/Mg^2+ free Dulbecco’s phosphate-buffered saline (DPBS). Subsequently, erythrocytes were diluted to 8% v/v in DPBS and incubated with 100 μl of treatment, positive control (1% Triton X-100) and negative control (DPBS), all in 1:1 ratio, for 1 h (final erythrocytes concentration = 4% v/v). After 1 h of incubation, the plate was centrifuged at 500×g for 5 min and 100 μl of supernatant of each well was transferred into a 96-well plate for measurement at OD540. Hemolysis (%) was calculated as [(Itreatment – INC)/(IPC – INC)] × 100.

Hemolytic assay = format: cell-based; details: human, Hmax (%): percentage of hemolysis at 200 µg/ml
Description: as §4

P. aeruginosa PA-OS = test: microbe, parasite or virus in culture; format: cell-based; details: Pseudomonas aeruginosa, 24 h, caMHB, read-out: MIC
Excerpt: as §2, §3

[4] = 0 mM NaCl, caMHB, 24 h, listed as LL-37
[5] = 0 mM NaCl, caMHB, 24 h, read-out: MIC

CC[C@H](C)[C@H](NC(=O)[C@H](CCCNC(=N)N)NC(=O)[C@H](CCC(N)=O)NC(=O)[C@@H](NC(=O)[C@@H](NC(=O)[C@H](CCCNC(=N)N)NC(=O)[C@@H](N)CCCCN)[C@@H](C)CC)C(C)C)C(=O)N[C@@H](CCCCN)C(=O)N[C@@H](CC(=O)O)C(=O)N[C@@H](Cc1ccccc1)C(=O)N[C@@H](CC(C)C)C(=O)N[C@@H](CCCNC(=N)N)C(=O)N[C@@H](CCCCN)C(=O)N[C@@H](CS)C(=O)N[C@@H](CS)C(=O)N[C@@H](CCCCN)C(=O)N[C@@H](CCCCN)C(=O)N1CCC[C@H]1C(=O)O [CaD2, KRIVQRIKDF LRKCCKKP] (H-KRIVQRIKDFLRKCCKKP-OH; N-terminus and C-terminus assumed)
IC50 (concentration causing 50% inhibition of cell viability) [1]: > 200 µg/mL
MIC (P. aeruginosa PAO1-L; PAO1, 24 h): > 200 µg/mL
MIC (MRSA-OS; -OS): > 200 µg/mL
MIC (S. aureus SH1000; SH1000, 24 h): > 200 µg/mL
CC50 at 3 h (in vitro): > 200 µg/mL
Lmax (%): percentage of cytotoxicity at 200 µg/ml [2]: 2.9 (2.2) %

CC[C@H](C)[C@H](NC(=O)[C@H](CCCCN)NC(=O)[C@H](CCC(=O)O)NC(=O)[C@H](CCCCN)NC(=O)[C@H](CO)NC(=O)[C@H](CCCCN)NC(=O)[C@H](CCCNC(=N)N)NC(=O)[C@H](Cc1ccccc1)NC(=O)[C@H](Cc1ccccc1)NC(=O)[C@H](CC(=O)O)NC(=O)CNC(=O)[C@H](CC(C)C)NC(=O)[C@@H](N)CC(C)C)C(=O)NCC(=O)N[C@@H](CCCCN)C(=O)N[C@@H](CCC(=O)O)C(=O)N[C@@H](Cc1ccccc1)C(=O)N[C@@H](CCCCN)C(=O)N[C@@H](CCCNC(=N)N)C(=O)N[C@H](C(=O)N[C@H](C(=O)N[C@@H](CCC(N)=O)C(=O)N[C@@H](CCCNC(=N)N)C(=O)N[C@H](C(=O)N[C@@H](CCCCN)C(=O)N[C@@H](CC(=O)O)C(=O)N[C@@H](Cc1ccccc1)C(=O)N[C@@H](CC(C)C)C(=O)N[C@@H](CCCNC(=N)N)C(=O)N[C@@H](CC(N)=O)C(=O)N[C@@H](CC(C)C)C(=O)N[C@H](C(=O)N1CCC[C@H]1C(=O)N[C@@H](CCCNC(=N)N)C(=O)N[C@H](C(=O)N[C@@H](CCC(=O)O)C(=O)N[C@@H](CO)C(=O)O)[C@@H](C)O)C(C)C)[C@@H](C)CC)C(C)C)[C@@H](C)CC [LL37, LLGDFFRKSKEKIGKEFKRIVQRIKDFLRNLVPRTES, reference compound]
MIC (P. aeruginosa PAO1-L; 0 mM NaCl, caMHB, 24 h): 50 µg/mL
MIC (P. aeruginosa PAO1-L; [4]): 50 µg/mL
MIC (P. aeruginosa PAO1-L; [5]): 11.1 µM
MIC (MRSA-OS; 0 mM NaCl, caMHB): 25 µg/mL
MIC (MRSA-OS; 0 mM NaCl, caMHB, listed as LL-37): 25 µg/mL
MIC (MRSA-OS; 0 mM NaCl, caMHB, read-out: MIC): 5.6 µM
MIC (S. aureus SH1000; 0 mM NaCl, caMHB, 24 h): 25 µg/mL
MIC (S. aureus SH1000; [4]): 25.0 µg/mL
MIC (S. aureus SH1000; [5]): 5.6 µM
MIC [3]: 25 to 50 µg/mL

C[C@H]1COc2c(N3CCN(C)CC3)c(F)cc3c(=O)c(C(=O)O)cn1c23 [Levofloxacin, levofloxacin, reference compound]
Imax (%): percentage of inhibition of cell viability at 200 µg/ml ([1]; HCE-2, CCK-8 assay, 200 µg/ml, mean (SD)): 108.0 (2.8) %
IC50 ([1]; Homo sapiens, Corneal epithelial cell, HCE-2, CCK-8 assay, mean (SD), read-out: IC50 (concentration causing 50% inhibition of cell viability)): > 200 µg/mL
S. aureus bacterial viability (S. aureus ATCC 29213; CaD23 0.05%, after 3 days of treatment, median ± IQR): 2.4 ± 2.2 log10 CFU/ml
Reduction of S. aureus bacterial viability compared to PBS group (S. aureus ATCC 29213; CaD23 0.05%, topical 4 times a day for 3 days, median): 98%
Ocular clinical scoring (S. aureus ATCC 29213; day 3 post-treatment, CaD23 0.05%, scale 0 to +4): 1.0 ± 0.71
Median reduction in the bacterial bioburden compared to the PBS group (S. aureus ATCC 29213): 1.8 logCFU
HC50 (concentration causing 50% hemolysis) (fresh human erythrocytes): > 200 µg/mL
hemolysis at 1 h, 200 µg/ml (Hemolytic assay): 0%
MIC (P. aeruginosa PAO1-L; Pseudomonas aeruginosa, PAO1, 24 h, 0 mM NaCl, caMHB, 24 h, read-out: MIC): 0.31 µg/mL and 0.86 µM
MIC (P. aeruginosa PAO1-L; Pseudomonas aeruginosa, PAO1, 24 h, 150 mM NaCl, caMHB, 24 h, read-out: MIC): 0.31 µg/mL and 0.86 µM
MIC (P. aeruginosa PA-OS; 0 mM NaCl): 0.31 µg/mL and 0.86 µM
MIC (P. aeruginosa PA-OS; 150 mM NaCl): 0.31 µg/mL and 0.86 µM
MIC (MRSA-OS; 150 mM NaCl, caMHB): 0.31 µg/mL
MIC (MRSA-OS; 150 mM NaCl, caMHB, read-out: MIC): 0.86 µM
MIC (MRSA-OS; Staphylococcus aureus, MRSA, 0 mM NaCl, caMHB, read-out: MIC): 0.31 µg/mL and 0.86 µM
MIC (S. aureus SH1000; Staphylococcus aureus, SH1000, 24 h, 0 mM NaCl, caMHB, 24 h, read-out: MIC): 0.31 µg/mL and 0.86 µM
MIC (S. aureus SH1000; Staphylococcus aureus, SH1000, 24 h, 150 mM NaCl, caMHB, 24 h, read-out: MIC): 0.31 µg/mL and 0.86 µM
CC50 at 3 h (in vitro): > 200 µg/mL
Lmax (%): percentage of cytotoxicity at 200 µg/ml ([2]; human, 3 h, 200 µg/ml): 1.2 (0.7) %

GIGDPVTCLKSGAICHPVFCPRRYKQIGTCGLPGTKCCKKP (disulfide 8-37, 15-30, 20-38 (inferred)) [HBD2, GIGDPVTCLKSGAICHPVFCPRRYKQIGTCGLPGTKCCKKP]
MIC [3]: 100 µg/mL
